Results published in PubChem BioAssay (NCI).
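Interpolation was linear, between the two tested concentrations surrounding the appropriate level; five concentrations were tested over 48 hours in 96-well plates. Here, GI50 denotes the concentration required for 50% inhibition of growth. TGI: total growth inhibition.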

Columns and labels:
Assay in all cases: growth of human tumour cells (NCI), 48 h
HL-60(TB) leukemia = system: HL-60(TB) leukemia
OVCAR-8 ovarian = system: OVCAR-8 ovarian
HOP-62 NSCLC = system: HOP-62 NSCLC
SK-MEL-2 melanoma = system: SK-MEL-2 melanoma
M14 melanoma = system: M14 melanoma
SNB-75 CNS = system: SNB-75 CNS
SF-295 CNS = system: SF-295 CNS
MALME-3M melanoma = system: MALME-3M melanoma
SN12C renal = system: SN12C renal
A498 renal = system: A498 renal

## COC(=O)C1=C(C(=O)OC)SC(=C(N=Nc2ccccc2)c2ccccc2)S1
HL-60(TB) leukemia
  TGI: > 100 µM
OVCAR-8 ovarian
  TGI: > 100 µM
HOP-62 NSCLC
  TGI: > 100 µM
SK-MEL-2 melanoma
  TGI: > 100 µM
M14 melanoma
  TGI: > 100 µM
SNB-75 CNS
  TGI: > 100 µM
SF-295 CNS
  TGI: > 100 µM
MALME-3M melanoma
  TGI: > 100 µM
SN12C renal
  TGI: > 100 µM
A498 renal
  TGI: > 100 µM

## O=C(N/N=C/c1cc([N+](=O)[O-])ccc1O)c1cccc2ccccc12
HL-60(TB) leukemia
  GI50: 2.27 µM
  TGI: 6.02 µM
OVCAR-8 ovarian
  GI50: 2.88 µM
  TGI: > 100 µM
HOP-62 NSCLC
  GI50: 3.73 µM
  TGI: 35.2 µM
SK-MEL-2 melanoma
  GI50: 6.69 µM
  TGI: > 100 µM
M14 melanoma
  GI50: 2.87 µM
  TGI: 68.4 µM
SNB-75 CNS
  GI50: 6.2 µM
  TGI: 44.7 µM
SF-295 CNS
  GI50: 2.77 µM
  TGI: 20.9 µM
MALME-3M melanoma
  GI50: 3.12 µM
  TGI: 21.7 µM
SN12C renal
  GI50: 6.62 µM
  TGI: > 100 µM
A498 renal
  GI50: 2.71 µM
  TGI: 29.3 µM

## O=C1CCC2(c3ccccc3)Nc3ncccc3N12 (stereo not given)
HL-60(TB) leukemia
  TGI: > 100 µM
OVCAR-8 ovarian
  TGI: > 100 µM
HOP-62 NSCLC
  TGI: > 100 µM
SK-MEL-2 melanoma
  TGI: > 100 µM
M14 melanoma
  TGI: > 100 µM
SNB-75 CNS
  TGI: > 100 µM
SF-295 CNS
  TGI: > 100 µM
MALME-3M melanoma
  TGI: > 100 µM
SN12C renal
  TGI: > 100 µM
A498 renal
  TGI: > 100 µM

## O=C(OCCBr)c1ccc(Cl)c([N+](=O)[O-])c1
HL-60(TB) leukemia
  GI50: 15.7 µM
  TGI: 42.6 µM
OVCAR-8 ovarian
  GI50: 17.3 µM
  TGI: 35.2 µM
HOP-62 NSCLC
  GI50: 1.91 µM
  TGI: 3.63 µM
SK-MEL-2 melanoma
  GI50: 16.3 µM
  TGI: 35.1 µM
M14 melanoma
  GI50: 16.4 µM
  TGI: 36.6 µM
SNB-75 CNS
  GI50: 5.63 µM
  TGI: 12.2 µM
SF-295 CNS
  GI50: 15.5 µM
  TGI: 30.5 µM
MALME-3M melanoma
  GI50: 19.1 µM
  TGI: 43.4 µM
SN12C renal
  GI50: 17.1 µM
  TGI: 33.2 µM
A498 renal
  GI50: 17.7 µM
  TGI: 42.4 µM

## CCNCCNc1cc(C2CCCCC2)c(C#N)c2nc3ccccc3n12
HL-60(TB) leukemia
  GI50: 1.46 µM
  TGI: 3.49 µM
OVCAR-8 ovarian
  GI50: 2.93 µM
  TGI: 7.99 µM
HOP-62 NSCLC
  GI50: 2.28 µM
  TGI: 6.93 µM
SK-MEL-2 melanoma
  GI50: 2.29 µM
  TGI: 4.71 µM
M14 melanoma
  GI50: 1.93 µM
  TGI: 3.67 µM
SNB-75 CNS
  GI50: 1.52 µM
  TGI: 3.4 µM
SF-295 CNS
  GI50: 1.8 µM
  TGI: 3.36 µM
MALME-3M melanoma
  GI50: 1.8 µM
  TGI: 3.48 µM
SN12C renal
  GI50: 1.93 µM
  TGI: 4.02 µM
A498 renal
  GI50: 1.56 µM
  TGI: 2.95 µM

## CCCc1cc(=O)n2c(C(=O)Nc3ccccc3OC)c(C(=O)Nc3ccc(F)cc3)sc2n1
HL-60(TB) leukemia
  GI50: 37.4 µM
  TGI: > 160 µM
OVCAR-8 ovarian
  GI50: 5.67 µM
  TGI: 20.7 µM
HOP-62 NSCLC
  GI50: 2.21 µM
  TGI: 13.9 µM
SK-MEL-2 melanoma
  GI50: 7.53 µM
  TGI: 29.6 µM
M14 melanoma
  GI50: 23.3 µM
  TGI: 110 µM
SNB-75 CNS
  GI50: 8.72 µM
  TGI: 35 µM
SF-295 CNS
  GI50: 19 µM
  TGI: 61.7 µM
MALME-3M melanoma
  GI50: 59.5 µM
  TGI: > 160 µM
A498 renal
  GI50: 34.3 µM
  TGI: 97.1 µM

## c1ccc(CSc2nnc3c4ccccc4c4ccccc4c3n2)cc1
HL-60(TB) leukemia
  TGI: > 100 µM
OVCAR-8 ovarian
  TGI: > 100 µM
HOP-62 NSCLC
  TGI: 75.6 µM
SK-MEL-2 melanoma
  TGI: > 79.7 µM
M14 melanoma
  TGI: > 100 µM
SNB-75 CNS
  TGI: 21.6 µM
SF-295 CNS
  TGI: 62.3 µM
MALME-3M melanoma
  TGI: > 100 µM
SN12C renal
  TGI: > 100 µM
A498 renal
  TGI: > 100 µM

## C=CC1C(OC2OC(CO)C(O)C(O)C2O)OC=C(C(=O)OC)C1CC=O (stereo not given)
HL-60(TB) leukemia
  TGI: > 100 µM
HOP-62 NSCLC
  TGI: > 100 µM
SK-MEL-2 melanoma
  TGI: > 100 µM
M14 melanoma
  TGI: > 100 µM
SNB-75 CNS
  TGI: > 100 µM
SF-295 CNS
  TGI: > 100 µM
MALME-3M melanoma
  TGI: > 100 µM
SN12C renal
  TGI: > 100 µM
A498 renal
  TGI: > 100 µM

## CCCCN(CCCC)c1ccc(C(=NC(C)CCCN(CC)CC)c2ccc(N(C)C)cc2)cc1 (stereo not given)
HL-60(TB) leukemia
  GI50: 1.01 µM
  TGI: 2.03 µM
OVCAR-8 ovarian
  GI50: 0.99 µM
  TGI: 2.09 µM
HOP-62 NSCLC
  GI50: 0.829 µM
  TGI: 1.63 µM
SK-MEL-2 melanoma
  GI50: 0.814 µM
  TGI: 1.81 µM
M14 melanoma
  GI50: 0.873 µM
  TGI: 1.72 µM
SNB-75 CNS
  GI50: 0.734 µM
  TGI: 1.56 µM
SF-295 CNS
  GI50: 0.88 µM
  TGI: 1.73 µM
MALME-3M melanoma
  GI50: 0.785 µM
  TGI: 1.62 µM
A498 renal
  GI50: 0.789 µM
  TGI: 2.39 µM

## CC(C)N1C(NNC(=O)c2cnccn2)=NS(=O)(=O)c2ccccc21
HL-60(TB) leukemia
  GI50: > 100 µM
  TGI: > 100 µM
OVCAR-8 ovarian
  GI50: > 100 µM
  TGI: > 100 µM
SK-MEL-2 melanoma
  GI50: > 100 µM
  TGI: > 100 µM
M14 melanoma
  GI50: > 100 µM
  TGI: > 100 µM
SNB-75 CNS
  GI50: 94.5 µM
  TGI: > 100 µM
SF-295 CNS
  GI50: > 100 µM
  TGI: > 100 µM
MALME-3M melanoma
  GI50: > 100 µM
  TGI: > 100 µM
SN12C renal
  GI50: > 100 µM
  TGI: > 100 µM
A498 renal
  GI50: > 100 µM
  TGI: > 100 µM

## CCN(CC)c1ccc(C(=N)c2ccc(N(C)C)cc2)cc1
HL-60(TB) leukemia
  GI50: 0.886 µM
  TGI: 15.9 µM
OVCAR-8 ovarian
  GI50: 1.94 µM
  TGI: 6.51 µM
HOP-62 NSCLC
  GI50: 1.55 µM
  TGI: 12.2 µM
M14 melanoma
  GI50: 0.167 µM
  TGI: 2.06 µM
SNB-75 CNS
  GI50: 2.26 µM
  TGI: > 21.7 µM
SF-295 CNS
  GI50: 0.161 µM
  TGI: 2.88 µM
MALME-3M melanoma
  GI50: 0.205 µM
  TGI: 4.76 µM
SN12C renal
  GI50: 2.36 µM
  TGI: 9.14 µM
A498 renal
  GI50: 1.17 µM
  TGI: 6.32 µM

## Clc1nc(Cl)c(-c2ccccc2)c(Cl)n1
HL-60(TB) leukemia
  TGI: 4.77 µM
OVCAR-8 ovarian
  TGI: 10.6 µM
HOP-62 NSCLC
  TGI: 33 µM
M14 melanoma
  TGI: 3.33 µM
SNB-75 CNS
  TGI: > 54.8 µM
SF-295 CNS
  TGI: 27.2 µM
MALME-3M melanoma
  TGI: 4.38 µM
SN12C renal
  TGI: 8.84 µM
A498 renal
  TGI: 30.1 µM

## COC(=O)C1=C(O)c2cc3c(cc2[C@H](c2cc(OC)c(OC)c(OC)c2)C1C(=O)OC)OCO3 (stereo not given in full)
HL-60(TB) leukemia
  TGI: > 100 µM
OVCAR-8 ovarian
  TGI: > 100 µM
HOP-62 NSCLC
  TGI: > 100 µM
M14 melanoma
  TGI: > 100 µM
SNB-75 CNS
  TGI: 66 µM
SF-295 CNS
  TGI: > 100 µM
MALME-3M melanoma
  TGI: 87.3 µM
SN12C renal
  TGI: 88 µM
A498 renal
  TGI: > 100 µM

## O=C(CCCSc1nc(-c2ccccc2)cc(-c2ccc(Cl)cc2)n1)NO
HL-60(TB) leukemia
  GI50: 2.35 µM
  TGI: 9.26 µM
OVCAR-8 ovarian
  GI50: 0.596 µM
  TGI: 16.2 µM
HOP-62 NSCLC
  GI50: 1.04 µM
  TGI: 17.4 µM
SK-MEL-2 melanoma
  GI50: 4.39 µM
  TGI: 18.5 µM
SNB-75 CNS
  GI50: 2.08 µM
  TGI: 10.4 µM
SF-295 CNS
  GI50: 2.03 µM
  TGI: 5.71 µM
MALME-3M melanoma
  GI50: 2.7 µM
  TGI: 12.1 µM
SN12C renal
  GI50: 1.18 µM
  TGI: 7.72 µM
A498 renal
  GI50: 1.7 µM
  TGI: 4.7 µM

## CCCOc1nc(SCCC)nc2c1cnn2-c1ccccc1
HL-60(TB) leukemia
  GI50: 38 µM
  TGI: > 100 µM
OVCAR-8 ovarian
  GI50: > 100 µM
  TGI: > 100 µM
HOP-62 NSCLC
  GI50: > 100 µM
  TGI: > 100 µM
M14 melanoma
  GI50: > 100 µM
  TGI: > 100 µM
SNB-75 CNS
  GI50: > 100 µM
  TGI: > 100 µM
SF-295 CNS
  GI50: 31.8 µM
  TGI: > 100 µM
MALME-3M melanoma
  GI50: > 100 µM
  TGI: > 100 µM
SN12C renal
  GI50: > 100 µM
  TGI: > 100 µM
A498 renal
  GI50: > 100 µM
  TGI: > 100 µM
